Data published in patent US7541368B2, “Pyrazoles as inhibitors of tumor necrosis factor” (Aventis Pharmaceuticals Inc., priority 2003, dated 2009).

Columns and labels:
[1] = molecular target: T1, Inactive N-terminal His6 tagged murine P38 (Mus musculus, UniProt P47811); test: p38 cascade assay (HTRF; inactive p38 activated by MKK-6, ATF-2 phosphorylation); type: biochemical; settings: inactive p38 preincubated with compound, then MKK-6, ATF-2, ATP; read-out: 50% inhibition in the p38 cascade assay at concentrations within the range
T1 construct: His6 (N); made in house
T1 sequence (P47811 whole entry): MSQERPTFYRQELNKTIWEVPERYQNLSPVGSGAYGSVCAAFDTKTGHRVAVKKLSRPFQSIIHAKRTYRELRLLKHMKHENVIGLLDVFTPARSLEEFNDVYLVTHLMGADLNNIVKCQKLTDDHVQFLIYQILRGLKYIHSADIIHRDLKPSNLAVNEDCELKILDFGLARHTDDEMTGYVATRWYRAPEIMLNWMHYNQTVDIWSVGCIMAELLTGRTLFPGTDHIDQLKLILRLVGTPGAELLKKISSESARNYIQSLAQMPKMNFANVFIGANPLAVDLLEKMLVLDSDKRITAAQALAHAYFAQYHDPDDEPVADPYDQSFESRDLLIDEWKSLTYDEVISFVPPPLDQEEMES
Experimental: The homogeneous time resolved fluorescence method (HTRF) assay measured the phosphorylation of human activating transcription factor (ATF)-2 protein by P38 following activation by MKK-6 and was run in A384 well plate format. […] MBP-tagged mouse MKK-6 (final concentration 50 nM), GST-tagged ATF-2 (fmal concentration 200 nM) and ATP (final concentration 50 μM) were then added and the incubation continued for 90 min. p38, MKK-6 and ATF-2 were prepared in the Protein Production Group, Aventis Pharmaceuticals. XL665 labeled anti-GST antibody (Cis Bio International) and cryptate labeled anti-pbospho-ATF2 antibody (Cis Bio International) were then added to generate the specific signal proportional to the phosphorylation of the substrate. The close proximity of XL665 labeled anti-GST antibody/phosphorylated GST-ATF2 complex and the cryptate labeled anti-phospho-ATF2 antibody results in a fluorescence transfer from cryptate to XL665. The resulting fluorescence signal was than read on a LJL Acquest set at multi-method mode using a fluorescence filter set (E=360 nm, Em=615/665 nm) with UV dichroic mirror (Integration time: 300000 μs). The results are reported as IC50 values. Compounds were tested over the concentration range of 3×10^−10M to 3×10^−5M.

[2] = system: TNF-alpha release in THP-1 cells; test: LPS-induced TNF-alpha release in THP-1 cells; type: cell-based; settings: Homo sapiens, THP-1, LPS-stimulated THP-1 cells; read-out: 50% inhibition in the LPS-induced TNF-alpha release in THP-1 cells assay at concentrations within the range
Method in brief: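 TNF-alpha in supernatants was quantified by sandwich ELISA against a log/log recombinant standard curve (0.125-16 ng/ml). Before this, THP-1 cells (1×10^6 cells/ml, serum-reduced) received compound at 1×10^−9 to 1×10^−6 M in 0.3% DMSO for 1 h, then LPS 20 μg/ml for 18 h.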

| Structure (SMILES) | IC50 [1] [nM] | IC50 [2] [nM] |
| --- | --- | --- |
| COc1cscc1C(=O)N1CCC(Cc2cccc(NC(=O)Nc3cc(C(C)(C)C)nn3-c3ccc(C)cc3)c2)CC1 [Compound A123, 1-(5-tert-Butyl-2-p-tolyl-2H-pyrazol-3-yl)-3-{3-[1-(4-methoxy-thiophene-3-carbonyl)-piperidin-4-ylmethyl]-phenyl}-urea] | 10 to 100 | 10 to 500 |
| Cc1ccc(-n2nc(C(C)(C)C)cc2NC(=O)Nc2cccc(CC3CCN(C(=O)c4ccc(C)s4)CC3)c2)cc1 [Compound A137, 1-(5-tert-Butyl-2-p-tolyl-2H-pyrazol-3-yl)-3-{3-[1-(5-methyl-thiophene-2-carbonyl)-piperidin-4-ylmethyl]-phenyl}-urea] | 10 to 100 | 10 to 500 |
| Cc1ccc(-n2nc(C(C)(C)C)cc2NC(=O)Nc2cccc(CC3CCN(C(=O)CNC(=O)c4ccccc4)CC3)c2)cc1 [Compound A163, N-[2-(4-{3-[3-(5-tert-butyl-2-p-tolyl-2H-pyrazol-3-yl)-ureido]-benzyl}-piperidin-1-yl)-2-oxo-ethyl]-benzamide] | 10 to 100 | 10 to 500 |
| Cc1ccc(-n2nc(C(C)(C)C)cc2NC(=O)Nc2cccc(CC3CCN(C(=O)c4ccncc4)CC3)c2)cc1 [Compound A170, 1-(5-tert-Butyl-2-p-tolyl-2H-pyrazol-3-yl)-3-{3-[1-(pyridine-4-carbonyl)-piperidin-4-ylmethyl]-phenyl}-urea] | 10 to 100 | 10 to 500 |
| COCC(=O)N1CCC(Cc2cccc(NC(=O)Nc3cc(C(C)(C)C)nn3-c3ccc(C)cc3)c2)CC1 [Compound A173, 1-(5-tert-Butyl-2-p-tolyl-2H-pyrazol-3-yl)-3-{3-[1-(2-methoxy-acetyl)-piperidin-4-ylmethyl]-phenyl}-urea] | 10 to 100 | 10 to 500 |
| CC(=O)NCC(=O)N1CCC(Cc2cccc(NC(=O)Nc3cc(C(C)(C)C)nn3-c3ccc(C)cc3)c2)CC1 [Compound A179, N-[2-(4-{3-[3-(5-tert-Butyl-2-p-tolyl-2H-pyrazol-3-yl)-ureido]-benzyl}-piperidin-1-yl)-2-oxo-ethyl]-acetamide] | 10 to 100 | 10 to 500 |
| Cc1ccc(-n2nc(C(C)(C)C)cc2NC(=O)Nc2cccc(CC3CCN(C(=O)c4cccnc4)CC3)c2)cc1 [Compound A181, 1-(5-tert-Butyl-2-p-tolyl-2H-pyrazol-3-yl)-3-{3-[1-(pyridine-3-carbonyl)-piperidin-4-ylmethyl]-phenyl}-urea] | 10 to 100 | 10 to 500 |
| Cc1ccc(-n2nc(C(C)(C)C)cc2NC(=O)Nc2ccc(CC3CCN(C(=O)Cc4ccc(F)cc4F)CC3)cc2)cc1 [Compound A217, 1-(5-tert-Butyl-2-p-tolyl-2H-pyrazol-3-yl)-3-(4-{1-[2-(2,4-difluoro-phenyl)-acetyl]-piperidin-4-ylmethyl}-phenyl)-urea] | 10 to 100 | 10 to 500 |
| Cc1ccc(-n2nc(C(C)(C)C)cc2NC(=O)Nc2ccc(CC3CCN(C(=O)c4sc(C)nc4C)CC3)cc2)cc1 [Compound A219, 1-(5-tert-Butyl-2-p-tolyl-2H-pyrazol-3-yl)-3-{4-[1-(2,4-dimethyl-thiazole-5-carbonyl)-piperidin-4-ylmethyl]-phenyl}-urea] | 10 to 100 | 10 to 500 |
| COc1ccc(OC)c(C(=O)N2CCC(Cc3ccc(NC(=O)Nc4cc(C(C)(C)C)nn4-c4ccc(C)cc4)cc3)CC2)c1 [Compound A220, 1-(5-tert-Butyl-2-p-tolyl-2H-pyrazol-3-yl)-3-{4-[1-(2,5-dimethoxy-benzoyl)-piperidin-4-ylmethyl]-phenyl}-urea] | 10 to 100 | 10 to 500 |
| Cc1ccc(-n2nc(C(C)(C)C)cc2NC(=O)Nc2ccc(CC3CCN(C(=O)c4cnccn4)CC3)cc2)cc1 [Compound A256, 1-(5-tert-Butyl-2-p-tolyl-2H-pyrazol-3-yl)-3-{4-[1-(pyrazine-2-carbonyl)-piperidin-4-ylmethyl]-phenyl}-urea] | 10 to 100 | 10 to 500 |
| Cc1ccc(-n2nc(C(C)(C)C)cc2NC(=O)Nc2ccc(CC3CCN(C(=O)c4nccnc4N)CC3)cc2)cc1 [Compound A283, 1-{4-[1-(3-Amino-pyrazine-2-carbonyl)-piperidin-4-ylmethyl]-phenyl}-3-(5-tert-butyl-2-p-tolyl-2H-pyrazol-3-yl)-urea] | 10 to 100 | 10 to 500 |
| Cc1ccc(-n2nc(C(C)(C)C)cc2NC(=O)Nc2ccc(CC3CCN(C(=O)c4occc4C)CC3)cc2)cc1 [Compound A289, 1-(5-tert-Butyl-2-p-tolyl-2H-pyrazol-3-yl)-3-{4-[1-(3-methyl-furan-2-carbonyl)-piperidin-4-ylmethyl]-phenyl}-urea] | 10 to 100 | 10 to 500 |
| Cc1ccc(-n2nc(C(C)(C)C)cc2NC(=O)Nc2ccc(CC3CCN(C(=O)c4oc5ccccc5c4C)CC3)cc2)cc1 [Compound A290, 1-(5-tert-Butyl-2-p-tolyl-2H-pyrazol-3-yl)-3-{4-[1-(3-methyl-benzofuran-2-carbonyl)-piperidin-4-ylmethyl]-phenyl}-urea] | 10 to 100 | 10 to 500 |
| Cc1ccc(-n2nc(C(C)(C)C)cc2NC(=O)Nc2ccc(CC3CCN(C(=O)CCOc4ccccc4)CC3)cc2)cc1 [Compound A292, 1-(5-tert-Butyl-2-p-tolyl-2H-pyrazol-3-yl)-3-{4-[1-(3-phenoxy-propionyl)-piperidin-4-ylmethyl]-phenyl}-urea] | 10 to 100 | 10 to 500 |
| Cc1ccc(-n2nc(C(C)(C)C)cc2NC(=O)Nc2ccc(CC3CCN(C(=O)c4ccsc4)CC3)cc2)cc1 [Compound A294, 1-(5-tert-Butyl-2-p-tolyl-2H-pyrazol-3-yl)-3-{4-[1-(thiophene-3-carbonyl)-piperidin-4-ylmethyl]-phenyl}-urea] | 10 to 100 | 10 to 500 |
| Cc1ccc(-n2nc(C(C)(C)C)cc2NC(=O)Nc2ccc(CC3CCN(C(=O)c4cnc(O)c(Cl)c4)CC3)cc2)cc1 [Compound A326, 1-(5-tert-Butyl-2-p-tolyl-2H-pyrazol-3-yl)-3-{4-[1-(5-chloro-6-hydroxy-pyridine-3-carbonyl)-piperidin-4-ylmethyl]-phenyl}-urea] | 10 to 100 | 10 to 500 |
| Cc1ccc(-n2nc(C(C)(C)C)cc2NC(=O)Nc2ccc(CC3CCN(C(=O)c4cccc(C)n4)CC3)cc2)cc1 [Compound A334, 1-(5-tert-Butyl-2-p-tolyl-2H-pyrazol-3-yl)-3-{4-[1-(6-methyl-pyridine-2-carbonyl)-piperidin-4-ylmethyl]-phenyl}-urea] | 10 to 100 | 10 to 500 |
| CC(=O)OCc1ccc(C(=O)N2CCC(Cc3ccc(NC(=O)Nc4cc(C(C)(C)C)nn4-c4ccc(C)cc4)cc3)CC2)cc1 [Compound A336, Acetic acid 4-(4-{4-[3-(5-tert-butyl-2-p-tolyl-2H-pyrazol-3-yl)-ureido]-benzyl}-piperidin-1-carbonyl)-benzyl ester] | 10 to 100 | 10 to 500 |
| Cc1ccc(-n2nc(C(C)(C)C)cc2NC(=O)Nc2ccc(CC3CCN(C(=O)CNC(=O)c4ccccc4)CC3)cc2)cc1 [Compound A352, N-[2-(4-{4-[3-(5-tert-Butyl-2-p-tolyl-2H-pyrazol-3-yl)-ureido]-benzyl}-piperidin-1-yl)-2-oxo-ethyl]-benzamide] | 10 to 100 | 10 to 500 |
| Cc1ccc(-n2nc(C(C)(C)C)cc2NC(=O)Nc2ccc(CC3CCN(C(=O)c4ccc5[nH]ccc5c4)CC3)cc2)cc1 [Compound A361, 1-(5-tert-Butyl-2-p-tolyl-2H-pyrazol-3-yl)-3-{4-[1-(1H-indole-5-carbonyl)-piperidin-4-ylmethyl]-phenyl}-urea] | 10 to 100 | 10 to 500 |
| Cc1ccc(-n2nc(C(C)(C)C)cc2NC(=O)Nc2ccc(CC3CCN(C(=O)c4ccncc4)CC3)cc2)cc1 [Compound A364, 1-(5-tert-Butyl-2-p-tolyl-2H-pyrazol-3-yl)-3-{4-[1-(pyridine-4-carbonyl)-piperidin-4-ylmethyl]-phenyl}-urea] | 10 to 100 | 10 to 500 |
| COCC(=O)N1CCC(Cc2ccc(NC(=O)Nc3cc(C(C)(C)C)nn3-c3ccc(C)cc3)cc2)CC1 [Compound A367, 1-(5-tert-Butyl-2-p-tolyl-2H-pyrazol-3-yl)-3-{4-[1-(2-methoxy-acetyl)-piperidin-4-ylmethyl]-phenyl}-urea] | 10 to 100 | 10 to 500 |
| CC(=O)NCC(=O)N1CCC(Cc2ccc(NC(=O)Nc3cc(C(C)(C)C)nn3-c3ccc(C)cc3)cc2)CC1 [Compound A375, N-[2-(4-{4-[3-(5-tert-Butyl-2-p-tolyl-2H-pyrazol-3-yl)-ureido]-benzyl}-piperidin-1-yl)-2-oxo-ethyl]-acetamide] | 10 to 100 | 10 to 500 |
| Cc1ccc(-n2nc(C(C)(C)C)cc2NC(=O)Nc2ccc(CC3CCN(C(=O)c4cccnc4)CC3)cc2)cc1 [Compound A377, 1-(5-tert-Butyl-2-p-tolyl-2H-pyrazol-3-yl)-3-{4-[1-(pyridine-3-carbonyl)-piperidin-4-ylmethyl]-phenyl}-urea] | 10 to 100 | 10 to 500 |
